Experimental data as given in patent publication US20250049698A1, “BIOACTIVE SERUM FRACTIONS FROM FRESH ROSE FLOWERS AND METHODS FOR THEIR PREPARATION AND USES” (ISP INVESTMENTS LLC, priority 2021, published 2025).

Assay: DPPH free radical scavenging assay
Assay type: biochemical
Conditions: positive control; dilution from 5% (w/v) stock solution
Source text: DPPH assay provides an easy and rapid way to evaluate potential antioxidants. A free radical is an atom or molecule that has one or more unpaired electrons. The evidence is that reactive species of oxygen (O2-, H2O2, and NO2+) play an important role in inflammation, neurodegenerative disorders, and cancer, etc. Antioxidants can react with the nitrogen centered radical DPPH (2,2-Diphenyl-1-Picrylhydrazyl) and convert it to the non-radical 2,2-Diphenyl-1-Picrylhydrazine. The changes in color (from deep violet to light yellow) were read at 517 nm after 60 min of reaction using a UV/VIS Spectrophotometer. DPPH free radical scavenging method offers the first approach for evaluating the antioxidant potential of a compound or extract. DPPH free radical scavenging activity was determined to assess antioxidant activities for test articles by following protocol. DPPH (Sigma-Aldrich, 300267, St. Louis, MO, USA) solution of 0.06 mM in absolute methanol was prepared. Test articles with different concentrations (20 μl) were mixed with 180 μl of DPPH solution to obtain a total of 200 μl per well in a 96-well plate. After 60 min incubation at room temperature in the dark, the absorbance was measured at 517 nm by using a microplate spectrophotometer Biotek Synergy 2 (Biotek Instruments Inc, Winooski, VT, USA). […] The ability to scavenge DPPH radicle was calculated as % inhibition. […]

- DPPH free radical scavenging IC50: 0.01 % (v/v)
Structure (SMILES): O=C1O[C@H]([C@@H](O)CO)C(O)=C1O [L-(+)-ascorbic acid (Vitamin C), L-(+)-ascorbic acid]
